This note sets out measurements from patent US20230414657A1, “Novel compositions for neutralizing toxic effects of hydrogen peroxide in living cells or tissues” (Dzala LLC, priority 2020, published 2023).

The structures appear in SMILES notation.

Common to all, as to format: in vivo
For assay [1], the system named is C. elegans. Description: Growth rate / worm size. The conditions noted are these: 100 mM H2O2 plus supplement (10 mM GA, 100 μM glycine or 500 μM L-serine). On the procedure:
Synchronized L1 worms were incubated at 15° C. on plates or in liquid culture and exposed to different conditions as indicated. Single worms were selected randomly from the plates or aliquots were taken from the liquid cultures and added to NGM plates for immediate visualization. 25 worms per treatment were measured at 24-48 hr intervals and all growth curves were done four times.

For assay [2], the system named is C. elegans. Description: Peroxide treatment of mutant, RNAi or unstressed worms: MMP, OCR and growth read together. The source says: C. elegans wild-type (N2) strain was received from Caenorhabditis Genetics Center, USA. Mutant strains were generated using the following primers. Idh-1: […] and […]; C31C9.2 (ghpr-1): […] and […]and F41E6.5 (gox-1): […]and[…]. […] Progeny of the rescued strains were genotyped for homozygous deletion with PCR primers for three generations. All mutants were outcrossed at least twice with the wild type to eliminate background mutations. Double and triple mutants were obtained by crossing single or double mutants and selecting the homozygous progeny by PCR.
For RNAi experiments in liquid, E. coli HT115 containing L4440 empty vector or the indicated cDNA fragment in L4440 was inoculated in 100 ml of LB containing 100 μg/ml ampicillin and incubated overnight at 37° C. in a shaking incubator at 250 rpm. To induce the production of dsRNA, a final concentration 0.8 mM IPTG was added to the collected bacterial pellet diluted 100-fold and incubated overnight at 25° C. in a shaking incubator at 250 rpm. Bacteria were then pelleted by centrifugation at 4000 rpm for 5 mins and resuspended in 200 μl S-medium containing 100 μg/ml ampicillin and 0.8 mM IPTG.
A population of synchronized L1 larvae was added to 30-ml glass tubes containing 2.5 ml of S-complete medium (liquid culture)^2 and NA22 or induced RNAi bacteria at an OD600 of 1.9. […] Worms were incubated at 15° C. and 150 rpm in a shaking incubator for 2-6 days, refreshing the medium every 2 days.
Mitochondrial staining was performed as described previously^3,4. Briefly, L1 worms were grown on plate or in liquid culture for 2-3 days at 15° C. Subsequently, they were pelleted in a 15-ml tube, rinsed twice with H2O and resuspended in 100 μl of M9. 5 μM MitoTracker Red CMXRos (Thermo Fisher Scientific, Germany) in DMSO was added to the worm suspension and incubated in this solution for 1.5 hr at room temperature in the dark. Next, the excess dye was washed off with M9 buffer and worms were incubated in 100 μl M9 for 30 min to eliminate the excess dye in the gut. Finally, worms were paralyzed with 0.5 mM Levamizol (Sigma-Aldrich), placed on slides covered with a thin layer of 2% agarose on top of which the coverslip (22×22 mm, Menzel-Glaser no. 1) was fixed using nail polish. We used a Zeiss LSM 700 inverted laser scanning confocal microscope and a Zeiss LCI Plan-Neofluar 63×/1.3 ImmCorr DIC M27 objective to image mitochondria (Zeiss, Germany). MitoTracker Red CMXRos was excited at 555 nm and the emission above 560 nm was acquired by the second PMT. Optical sections at 0.1×0.1×0.5 μm^3 x-y-z resolution were collected in a 4D hyperstack. Final images were adjusted for intensity and merged in Fiji. No non-linear adjustments were made.
Synchronized L1 worms were incubated at 15° C. on plates or in liquid culture and exposed to different conditions as indicated. Single worms were selected randomly from the plates or aliquots were taken from the liquid cultures and added to NGM plates for immediate visualization. 25 worms per treatment were measured at 24-48 hr intervals and all growth curves were done four times. Images were analyzed using FIJI (Image J) software, with length measurements derived by the sum-total of a number of segmented lines of known length, down the center of the worm as described previously^5.
Oxygen consumption of worms was measured with a Seahorse XFe96 system (Seahorse Bioscience, North Billerica, MA), as previously described^4. L3 larvae of the different strains were grown on plates or in liquid culture and supplemented for 2-4 days as described for each experiment. After removing bacteria and debris, approximately 100 worms were pipetted into each well of a 96-well Seahorse XF^e assay plate and OCR was measured until it stabilized. Then, 3 subsequent measurements were made at 6.5-min intervals. Finally, the exact number of worms in each well was counted and used for normalization.

Assay [3] relates to C. elegans. In words: Quantification of glutathione (GSH/GSSG-Glo). On the procedure: Sample preparation was performed as described previously with some modifications^6. From each condition 10,000 synchronized animals were harvested and washed 3 times with sterile water. […] To thoroughly lyse the worms, 5 cycles of freezing and thawing were performed in a water bath at 37° C., followed by a 1-min sonication. The samples were then centrifuged and the supernatant tested for protein estimation and GSH quantification. Total GSH, GSSG, and GSH/GSSG ratios were quantified using the GSH/GSSG-Glo assay kit (Promega) following the instructions of the manufacturer. Briefly, each sample was tested in triplicate in 96-well culture plates with total glutathione or GSSG lysis reagent, for total glutathione or GSSG measurement, respectively. The GSH probe, luciferin-NT, was converted to luciferin, which is coupled to a firefly luciferase. The plates were then read in an […] plate reader (Perkin Elmer, United States). The GSSG value was subtracted from the total glutathione to calculate GSH levels and GSH/GSSG ratio. Four biological replicates were analyzed for each condition.

Assay [4] has as its system C. elegans. In words: H2O2 accumulation in worms (Amplex Red). To be noted: co-supplemented with peroxide and GA vs peroxide alone, 3 days. Here is the method:
Hydrogen peroxide was measured using the Amplex Red hydrogen peroxide/peroxidase assay kit (Molecular Probes, Eugene, OR), adapting the protocol to C. elegans. In the presence of hydrogen peroxide, Amplex Red is oxidized by horseradish peroxidase to form a red-fluorescent oxidation product whose fluorescence intensity can be measured.
To measure ROS production from C. elegans, 5000-7000 L1 worms were exposed to each condition for 2-3 days as indicated and then washed four times in 1 ml of the reaction buffer supplied with the kit. Volumes were adjusted to 700-1200 nematodes/50 μl and 50 μl was pipetted into a 96-well plate. A total of 50 μl of the Amplex Red reaction buffer was then added to the wells, and after 1 hr fluorescence was measured with a fluorescence microplate reader using excitation at 530±12.5 nm and fluorescence detection at 590±17.5 nm. Background fluorescence, determined for a no-H2O2 control reaction, was subtracted from each value. The significance of differences between conditions was determined by an unpaired fest. GraphPadPrism 8.0 was used for these calculations. Three biological replicates were carried out for each condition.

Turning to `O=C(O)CO` [GA, glycolic acid], the Growth result in the assay on C. elegans [1] is listed as “able to restore both traits”. The “Impact on any of the parameters analyzed (FIGS. 1 and 2)” value in the assay with C. elegans [2] (GA supplementation in the absence of H2O2) was “does not have a significant impact”. Moreover, the “Restoration of MMP, OCR or growth rate” value with C. elegans [2] (H2O2, RNAi against mel-32 or gcst-1) is on record as “none of these three compounds were able to restore”. In addition, the “MMP, OCR, growth rate” value with C. elegans [2] (H2O2, worms fed with empty vector RNAi bacteria) was “restored parameters”. Also, the “Glycolate-mediated protection (MMP, OCR, growth)” value in the assay on C. elegans [2] (ghpr-1, gox-1, ldh-1 triple mutant, H2O2) was “totally abolished”. Besides, the “Effect of glycolate on MMP, oxygen consumption rate and developmental rate” value in the assay with C. elegans [2] (ghpr-1 deletion mutant, H2O2 treatment) was “significantly reduced effect”. In the assay on C. elegans [2] (single mutants of gox-1 and ldh-1 or their double mutants, H2O2), the “Effect of glycolate on MMP, OCR or growth” value is on record as “no reduction in the effect”. In the assay on C. elegans [3] (H2O2+GA, control 107.5), the GSH/GSSG ratio is recorded as 77.4. Further, the Total glutathione in the assay with C. elegans [3] (H2O2 in the presence of GA (10 mM), 3 days) was 91 % of the control. The “Oxidized form of glutathione (GSSG)” value in the assay with C. elegans [3] (H2O2 with addition of GA) is listed as 140 % of the control. In the assay on C. elegans [3] (peroxide-treated ghpr-1 and ghpr-1, gox-1, ldh-1 mutant strains), the “Total glutathione, effect of GA addition” value was “unaffected”. Besides, the “Increase in GSSG, rescue by GA” value in the assay with C. elegans [3] (peroxide-treated ghpr-1 and triple mutants co-incubated with GA) is “not rescued”. Besides, the “Accumulation of H2O2” value with C. elegans [4] is “diminished”.
